Source: the supplement of paper PMC11451515

Test system: SEM cells
Test: cell viability relative to DMSO control; higher = less cytotoxic
Details: 48 h
Procedure, shortened: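 Three leukemia lines were tested: NOMO1 and SEM at 500 cells/well and P12-Ichikawa at 1000 cells/well. Each was adapted for at least four passages in each medium and seeded in 5 μl in 1536-well plates, and library compounds in DMSO were pin-dosed from 47 μM to 0.79 nM in 11 threefold steps. After 48 h at 37°C, CellTiter-Glo One luminescence was read. Viability is a percentage relative to DMSO wells on each plate, with cell-free wells as background.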

[1] = HPLM + 10% dialyzed FBS, 0.000781 µM
[2] = HPLM + 10% dialyzed FBS, 0.00234 µM
[3] = HPLM + 10% dialyzed FBS, 0.00702 µM
[4] = HPLM + 10% dialyzed FBS, 0.0211 µM
[5] = HPLM + 10% dialyzed FBS, 0.0632 µM
[6] = HPLM + 10% dialyzed FBS, 0.19 µM
[7] = HPLM + 10% dialyzed FBS, 0.569 µM
[8] = HPLM + 10% dialyzed FBS, 1.71 µM
[9] = HPLM + 10% dialyzed FBS, 5.12 µM
[10] = HPLM + 10% dialyzed FBS, 15.4 µM
[11] = HPLM + 10% dialyzed FBS, 46.1 µM
[12] = RPMI 5 mM glucose + 10% FBS, 0.000781 µM
[13] = RPMI 5 mM glucose + 10% FBS, 0.00234 µM
[14] = RPMI 5 mM glucose + 10% FBS, 0.00702 µM
[15] = RPMI 5 mM glucose + 10% FBS, 0.0211 µM
[16] = RPMI 5 mM glucose + 10% FBS, 0.0632 µM
[17] = RPMI 5 mM glucose + 10% FBS, 0.19 µM
[18] = RPMI 5 mM glucose + 10% FBS, 0.569 µM
[19] = RPMI 5 mM glucose + 10% FBS, 1.71 µM
[20] = RPMI 5 mM glucose + 10% FBS, 5.12 µM
[21] = RPMI 5 mM glucose + 10% FBS, 15.4 µM
[22] = RPMI 5 mM glucose + 10% FBS, 46.1 µM
[23] = RPMI 5 mM glucose + 10% dialyzed FBS, 0.000781 µM
[24] = RPMI 5 mM glucose + 10% dialyzed FBS, 0.00234 µM
[25] = RPMI 5 mM glucose + 10% dialyzed FBS, 0.00702 µM
[26] = RPMI 5 mM glucose + 10% dialyzed FBS, 0.0211 µM
[27] = RPMI 5 mM glucose + 10% dialyzed FBS, 0.0632 µM
[28] = RPMI 5 mM glucose + 10% dialyzed FBS, 0.19 µM
[29] = RPMI 5 mM glucose + 10% dialyzed FBS, 0.569 µM
[30] = RPMI 5 mM glucose + 10% dialyzed FBS, 1.71 µM
[31] = RPMI 5 mM glucose + 10% dialyzed FBS, 5.12 µM
[32] = RPMI 5 mM glucose + 10% dialyzed FBS, 15.4 µM
[33] = RPMI 5 mM glucose + 10% dialyzed FBS, 46.1 µM

Molecule CNC(=O)c1ccc(N2C(=S)N(c3ccc(C#N)c(C(F)(F)F)c3)C(=O)C2(C)C)cc1F has a cell viability [1] of 87.9%, a cell viability [2] of 96.9% and a cell viability [3] of 42.8%. The cell viability [4] was 113%, the cell viability [5] was 105% and the cell viability [6] was 113%. It also gave a cell viability [7] of 112%, a cell viability [8] of 109% and a cell viability [9] of 117%. The cell viability [10] was 121%, the cell viability [11] was 105% and the cell viability [12] was 71.3%. It also gave a cell viability [13] of 74%, a cell viability [14] of 9.73% and a cell viability [15] of 74.8%. The cell viability [16] was 73.9%, the cell viability [17] was 81.9% and the cell viability [18] was 86.3%. The cell viability [19] was 72.2%, the cell viability [20] was 90.1% and the cell viability [21] was 76.1%. The cell viability [22] was 64.1%, the cell viability [23] was 87.7% and the cell viability [24] was 99.6%. The cell viability [25] was 31.2%, the cell viability [26] was 116% and the cell viability [27] was 109%. For the same molecule, the cell viability [28] was 111%, the cell viability [29] was 104% and the cell viability [30] was 110%. It also gave a cell viability [31] of 104%, a cell viability [32] of 110% and a cell viability [33] of 87.9%.

NCCCCCC(=O)O showed a cell viability [1] of 87.3%, a cell viability [2] of 17% and a cell viability [3] of 101%. It also gave a cell viability [4] of 42.8%, a cell viability [5] of 108% and a cell viability [6] of 119%. It also gave a cell viability [7] of 111%, a cell viability [8] of 119% and a cell viability [9] of 116%. For the same molecule, the cell viability [10] was 107%, the cell viability [11] was 115% and the cell viability [12] was 91.7%. For the same molecule, the cell viability [13] was 115%, the cell viability [14] was 104% and the cell viability [15] was 36.5%. It also gave a cell viability [16] of 103%, a cell viability [17] of 102% and a cell viability [18] of 111%. For the same molecule, the cell viability [19] was 104%, the cell viability [20] was 96.4% and the cell viability [21] was 98%. It also gave a cell viability [22] of 97.4%, a cell viability [23] of 35.6% and a cell viability [24] of 9.07%. It also gave a cell viability [25] of 101%, a cell viability [26] of 39.5% and a cell viability [27] of 100%. For the same molecule, the cell viability [28] was 99.9%, the cell viability [29] was 101% and the cell viability [30] was 100%. The cell viability [31] was 94.3%, the cell viability [32] was 98% and the cell viability [33] was 103%.

O=C(C[C@@H]1C/C=C\CCC(=O)O[C@H](c2ccccc2)CNC1=O)NCc1ccc(Cl)cc1 gave a cell viability [1] of 77%, a cell viability [2] of 109% and a cell viability [3] of 46.9%. It also gave a cell viability [4] of 111%, a cell viability [5] of 109% and a cell viability [6] of 118%. It also gave a cell viability [7] of 128%, a cell viability [8] of 107% and a cell viability [9] of 107%. For the same molecule, the cell viability [10] was 112%, the cell viability [11] was 118% and the cell viability [12] was 85.7%. The cell viability [13] was 102%, the cell viability [14] was 11.1% and the cell viability [15] was 88.8%. It also gave a cell viability [16] of 95.7%, a cell viability [17] of 96.3% and a cell viability [18] of 101%. The cell viability [19] was 102%, the cell viability [20] was 98.9% and the cell viability [21] was 90.9%. The cell viability [22] was 94%, the cell viability [23] was 83.6% and the cell viability [24] was 106%. The cell viability [25] was 34.3%, the cell viability [26] was 121% and the cell viability [27] was 116%. For the same molecule, the cell viability [28] was 128%, the cell viability [29] was 122% and the cell viability [30] was 104%. It also gave a cell viability [31] of 107%, a cell viability [32] of 103% and a cell viability [33] of 102%.

With CO[C@@H]1[C@@H](OC(N)=O)[C@@H](O)[C@H](OC2=CC=C3\C(=C(NC(=O)C4=CC=C([O-])C(=C4)CC=C(C)C)/C(=O)OC3=C2C)O)OC1(C)C the cell viability [1] was 106%, the cell viability [2] was 110% and the cell viability [3] was 123%. The cell viability [4] was 97.7%, the cell viability [5] was 118% and the cell viability [6] was 116%. The cell viability [7] was 102%, the cell viability [8] was 101% and the cell viability [9] was 121%. For the same molecule, the cell viability [10] was 98.7%, the cell viability [11] was 117% and the cell viability [23] was 105%. It also gave a cell viability [24] of 106%, a cell viability [25] of 109% and a cell viability [26] of 114%. For the same molecule, the cell viability [27] was 111%, the cell viability [28] was 115% and the cell viability [29] was 109%. It also gave a cell viability [30] of 101%, a cell viability [31] of 107% and a cell viability [32] of 81.5%. The cell viability [33] was 110%.

CC(=O)Oc1cc2c(s1)CCN(C(C(=O)C1CC1)c1ccccc1F)C2.Cl (configuration not stated) was tested, and the cell viability [1] was 84.3%, the cell viability [2] was 102% and the cell viability [3] was 103%. For the same molecule, the cell viability [4] was 113%, the cell viability [5] was 115% and the cell viability [6] was 112%. It also gave a cell viability [7] of 110%, a cell viability [8] of 122% and a cell viability [9] of 120%. The cell viability [10] was 101%, the cell viability [11] was 68.5% and the cell viability [12] was 71.3%. For the same molecule, the cell viability [13] was 96.9%, the cell viability [14] was 88.7% and the cell viability [15] was 96.7%. For the same molecule, the cell viability [16] was 90.8%, the cell viability [17] was 101% and the cell viability [18] was 94.2%. It also gave a cell viability [19] of 100%, a cell viability [20] of 101% and a cell viability [21] of 82.1%. It also gave a cell viability [22] of 53.3%, a cell viability [23] of 76.1% and a cell viability [24] of 106%. It also gave a cell viability [25] of 103%, a cell viability [26] of 111% and a cell viability [27] of 107%. It also gave a cell viability [28] of 114%, a cell viability [29] of 110% and a cell viability [30] of 117%. It also gave a cell viability [31] of 115%, a cell viability [32] of 78.6% and a cell viability [33] of 54.4%.

O=C(O)[C@@H](c1ccc(OCc2ccc3ccccc3n2)cc1)C1CCCC1 gave a cell viability [1] of 116%, a cell viability [2] of 124% and a cell viability [3] of 122%. The cell viability [4] was 114%, the cell viability [5] was 123% and the cell viability [6] was 45.5%. It also gave a cell viability [7] of 125%, a cell viability [8] of 114% and a cell viability [9] of 43.4%. For the same molecule, the cell viability [10] was 113%, the cell viability [11] was 95.6% and the cell viability [23] was 109%. It also gave a cell viability [24] of 151%, a cell viability [25] of 120% and a cell viability [26] of 127%. For the same molecule, the cell viability [27] was 148%, the cell viability [28] was 52% and the cell viability [29] was 129%. The cell viability [30] was 124%, the cell viability [31] was 19.4% and the cell viability [32] was 114%. The cell viability [33] was 83.1%.

With CN(C)/[N+]([O-])=N/Oc1cc(ON[N+](=O)N2CCN(C(=O)c3cc(Cc4n[nH]c(=O)c5ccccc45)ccc3F)CC2)c([N+](=O)[O-])cc1[N+](=O)[O-] the cell viability [1] was 94%, the cell viability [2] was 97.2% and the cell viability [3] was 103%. The cell viability [4] was 97.7%, the cell viability [5] was 100% and the cell viability [6] was 58.3%. The cell viability [7] was 101%, the cell viability [8] was 116% and the cell viability [9] was 109%. The cell viability [10] was 110%, the cell viability [11] was 105% and the cell viability [12] was 99%. It also gave a cell viability [13] of 101%, a cell viability [14] of 93.1% and a cell viability [15] of 93.5%. For the same molecule, the cell viability [16] was 100%, the cell viability [17] was 55.9% and the cell viability [18] was 98.2%. For the same molecule, the cell viability [19] was 109%, the cell viability [20] was 111% and the cell viability [21] was 113%. The cell viability [22] was 103%, the cell viability [23] was 89.9% and the cell viability [24] was 79.2%. For the same molecule, the cell viability [25] was 112%, the cell viability [26] was 103% and the cell viability [27] was 109%. The cell viability [28] was 40.1%, the cell viability [29] was 137% and the cell viability [30] was 122%. It also gave a cell viability [31] of 106%, a cell viability [32] of 100% and a cell viability [33] of 91.8%.

For O=C(NCCCNc1nc(Nc2cccc(NC(=O)N3CCCC3)c2)ncc1I)c1cccs1, the cell viability [1] was 55.6%, the cell viability [2] was 91.1% and the cell viability [3] was 102%. The cell viability [4] was 75.8%, the cell viability [5] was 46.5% and the cell viability [6] was 60.8%. It also gave a cell viability [7] of 50.4%, a cell viability [8] of 27.2% and a cell viability [9] of 32.9%. For the same molecule, the cell viability [10] was 76.7%, the cell viability [11] was 70.6% and the cell viability [12] was 74%. It also gave a cell viability [13] of 124%, a cell viability [14] of 124% and a cell viability [15] of 111%. It also gave a cell viability [16] of 68.7%, a cell viability [17] of 85.1% and a cell viability [18] of 33.1%. For the same molecule, the cell viability [19] was 13.4%, the cell viability [20] was 37.5% and the cell viability [21] was 77.7%. For the same molecule, the cell viability [22] was 68.9%, the cell viability [23] was 46.5% and the cell viability [24] was 96.9%. The cell viability [25] was 87.4%, the cell viability [26] was 78.9% and the cell viability [27] was 36.8%. For the same molecule, the cell viability [28] was 64.9%, the cell viability [29] was 42.6% and the cell viability [30] was 23.9%. For the same molecule, the cell viability [31] was 28.4%, the cell viability [32] was 79.6% and the cell viability [33] was 62.6%.
